Results as given in US10131652B2, “Pyrimidinyloxy benzene derivatives as herbicides” (E. I. DU PONT DE NEMOURS AND COMPANY, priority 2014, dated 2018).

Assays:
Type in all cases: in vivo
[1] = test system: Italian ryegrass (Lolium multiflorum); assay: Test B pre-/postemergence plant response
Procedure, shortened: (§1)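 Scoring used a 0–100 scale (100 = complete control) by visual comparison with untreated plants after approximately 10 days in the greenhouse. Compounds, in surfactant-containing non-phytotoxic solvent, were sprayed onto soil at planting or onto 2–10 cm seedlings.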

[2] = test system: kochia (Kochia scoparia); assay: Test B pre-/postemergence plant response
Procedure, shortened: as §1

[3] = test system: ragweed (common ragweed, Ambrosia elatior); assay: Test B pre-/postemergence plant response
Procedure, shortened: as §1

[4] = test system: giant foxtail (Setaria faberii); assay: Test D pre-/postemergence plant response
Procedure, shortened: (§2)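 Seeds were planted in a loam and sand blend and sprayed preemergence. In parallel, seedlings grown in peat moss/vermiculite medium were sprayed postemergence at 2 to 18 cm height. Both used a surfactant-containing non-phytotoxic solvent. Greenhouse ratings at 13 to 15 days used a 0–100 control scale.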

[5] = test system: pigweed (Amaranthus retroflexus); assay: Test D pre-/postemergence plant response
Procedure, shortened: as §2

[6] = test system: Italian ryegrass (Lolium multiflorum); assay: Test D pre-/postemergence plant response
Procedure, shortened: as §2

[7] = test system: blackgrass (Alopecurus myosuroides); assay: Test D pre-/postemergence plant response
Procedure, shortened: as §2

[8] = test system: large (Lg) crabgrass (Digitaria sanguinalis); assay: Test D pre-/postemergence plant response
Procedure, shortened: as §2

[9] = test system: yellow nutsedge (Cyperus esculentus); assay: Test D pre-/postemergence plant response
Procedure, shortened: as §2

[10] = test system: galium (catchweed bedstraw, Galium aparine); assay: Test D pre-/postemergence plant response
Procedure, shortened: as §2

[11] = test system: barnyardgrass (Echinochloa crus-galli); assay: Test D pre-/postemergence plant response
Procedure, shortened: as §2

[12] = test system: ragweed (common ragweed, Ambrosia elatior); assay: Test D pre-/postemergence plant response
Procedure, shortened: as §2

[13] = test system: oilseed rape (Brassica napus); assay: Test D pre-/postemergence plant response
Procedure, shortened: as §2

[14] = test system: corn (Zea mays); assay: Test D pre-/postemergence plant response
Procedure, shortened: as §2

[15] = 125 g ai/ha, postemergence, 0 to 100 scale, 0 no effect, 100 complete control
[16] = Postemergence, 500 g ai/ha, 0 to 100 scale (0 no effect, 100 complete control)
[17] = Preemergence, 125 g ai/ha, 0 to 100 scale where 0 is no effect and 100 is complete control
[18] = Preemergence, 500 g ai/ha, 0 to 100 scale where 0 is no effect and 100 is complete control
[19] = Postemergence, 16 g ai/ha, scale 0 to 100 (0 no effect, 100 complete control)
[20] = Postemergence, 31 g ai/ha, scale 0 to 100 (0 no effect, 100 complete control)
[21] = Postemergence, 62 g ai/ha, scale 0 to 100, 0 no effect, 100 complete control
[22] = Postemergence, 125 g ai/ha, scale 0 to 100, 0 no effect, 100 complete control
[23] = Preemergence, 16 g ai/ha, scale 0 to 100 (0 no effect, 100 complete control)
[24] = Preemergence, 31 g ai/ha, scale 0 to 100 (0 no effect, 100 complete control)
[25] = Preemergence, 62 g ai/ha, scale 0 to 100 (0 no effect, 100 complete control)

For `Cc1cc(-c2ccccc2Oc2ncc(Cl)cn2)on1` [Compound 58], the “Plant response rating, Ryegrass, Italian” value [1, 15] was 20, the “Plant response rating, Ryegrass, Italian” value [1, 16] was 80 and the “Plant response rating, Ryegrass, Italian” value [1, 17] was 0. For the same molecule, the “Plant response rating, Ryegrass, Italian” value [1, 18] was 20, the “Plant response rating, Kochia” value [2, 15] was 100 and the “Plant response rating, Kochia” value [2, 16] was 100. The “Plant response rating, Kochia” value [2, 17] was 80, the “Plant response rating, Kochia” value [2, 18] was 100 and the “Plant response rating, Ragweed” value [3, 15] was 100. For the same molecule, the “Plant response rating, Ragweed” value [3, 16] was 100, the “Plant response rating, Ragweed” value [3, 17] was 70 and the “Plant response rating, Ragweed” value [3, 18] was 80. The “Foxtail, Giant plant response rating” value [4, 19] was 0, the “Foxtail, Giant plant response rating” value [4, 20] was 0 and the “Plant response rating, Foxtail, Giant” value [4, 21] was 15. The “Plant response rating, Foxtail, Giant” value [4, 22] was 30, the “Plant response rating (scale 0 to 100), Foxtail, Giant” value ([4]; Preemergence, 125 g ai/ha) was 98 and the “Plant response rating, Foxtail, Giant” value [4, 23] was 0. For the same molecule, the “Plant response rating, Foxtail, Giant” value [4, 24] was 15, the “Plant response rating, Foxtail, Giant” value [4, 25] was 85 and the “Pigweed plant response rating” value [5, 19] was 20. The “Pigweed plant response rating” value [5, 20] was 25, the “Plant response rating, Pigweed” value [5, 21] was 40 and the “Plant response rating, Pigweed” value [5, 22] was 75. For the same molecule, the “Plant response rating (scale 0 to 100), Pigweed” value ([5]; Preemergence, 125 g ai/ha) was 100, the “Plant response rating, Pigweed” value [5, 23] was 50 and the “Plant response rating, Pigweed” value [5, 24] was 100. The “Plant response rating, Pigweed” value [5, 25] was 100, the “Ryegrass, Italian plant response rating” value [6, 19] was 0 and the “Ryegrass, Italian plant response rating” value [6, 20] was 0. The “Plant response rating, Ryegrass, Italian” value [6, 21] was 0, the “Plant response rating, Ryegrass, Italian” value [6, 22] was 0 and the “Plant response rating (scale 0 to 100), Ryegrass, Italian” value ([6]; Preemergence, 125 g ai/ha) was 5. The “Plant response rating, Ryegrass, Italian” value [6, 23] was 0, the “Plant response rating, Ryegrass, Italian” value [6, 24] was 0 and the “Plant response rating, Ryegrass, Italian” value [6, 25] was 0. The “Blackgrass plant response rating” value [7, 19] was 0, the “Blackgrass plant response rating” value [7, 20] was 0 and the “Plant response rating, Blackgrass” value [7, 21] was 0. For the same molecule, the “Plant response rating, Blackgrass” value [7, 22] was 5, the “Plant response rating (scale 0 to 100), Blackgrass” value ([7]; Preemergence, 125 g ai/ha) was 95 and the “Plant response rating, Blackgrass” value [7, 23] was 0. For the same molecule, the “Plant response rating, Blackgrass” value [7, 24] was 5, the “Plant response rating, Blackgrass” value [7, 25] was 80 and the “Crabgrass, Large plant response rating” value [8, 19] was 5. For the same molecule, the “Crabgrass, Large plant response rating” value [8, 20] was 5, the “Plant response rating, Crabgrass, Large” value [8, 21] was 5 and the “Plant response rating, Crabgrass, Large” value [8, 22] was 5. The “Plant response rating (scale 0 to 100), Crabgrass, Large” value ([8]; Preemergence, 125 g ai/ha) was 100, the “Plant response rating, Crabgrass, Large” value [8, 23] was 25 and the “Plant response rating, Crabgrass, Large” value [8, 24] was 90. The “Plant response rating, Crabgrass, Large” value [8, 25] was 100, the “Nutsedge, Yellow plant response rating” value [9, 19] was 0 and the “Nutsedge, Yellow plant response rating” value [9, 20] was 0. The “Plant response rating, Nutsedge, Yellow” value [9, 21] was 0, the “Plant response rating, Nutsedge, Yellow” value [9, 22] was 0 and the “Plant response rating (scale 0 to 100), Nutsedge, Yellow” value ([9]; Preemergence, 125 g ai/ha) was 15. The “Plant response rating, Nutsedge, Yellow” value [9, 23] was 0, the “Plant response rating, Nutsedge, Yellow” value [9, 24] was 0 and the “Plant response rating, Nutsedge, Yellow” value [9, 25] was 0. For the same molecule, the “Galium plant response rating” value [10, 19] was 40, the “Galium plant response rating” value [10, 20] was 45 and the “Plant response rating, Galium” value [10, 21] was 60. The “Plant response rating, Galium” value [10, 22] was 55, the “Plant response rating (scale 0 to 100), Galium” value ([10]; Preemergence, 125 g ai/ha) was 100 and the “Plant response rating, Galium” value [10, 23] was 0. For the same molecule, the “Plant response rating, Galium” value [10, 24] was 98, the “Plant response rating, Galium” value [10, 25] was 100 and the “Barnyardgrass plant response rating” value [11, 19] was 0. For the same molecule, the “Barnyardgrass plant response rating” value [11, 20] was 0, the “Plant response rating, Barnyardgrass” value [11, 21] was 0 and the “Plant response rating, Barnyardgrass” value [11, 22] was 5. The “Plant response rating (scale 0 to 100), Barnyardgrass” value ([11]; Preemergence, 62 g ai/ha) was 65, the “Plant response rating (scale 0 to 100), Barnyardgrass” value ([11]; Preemergence, 125 g ai/ha) was 80 and the “Plant response rating, Barnyardgrass” value [11, 23] was 5. For the same molecule, the “Plant response rating, Barnyardgrass” value [11, 24] was 5, the “Ragweed plant response rating” value [12, 19] was 20 and the “Ragweed plant response rating” value [12, 20] was 45. For the same molecule, the “Plant response rating, Ragweed” value [12, 21] was 65, the “Plant response rating, Ragweed” value [12, 22] was 60 and the “Plant response rating (scale 0 to 100), Ragweed” value ([12]; Preemergence, 125 g ai/ha) was 100. The “Plant response rating, Ragweed” value [12, 23] was 100, the “Plant response rating, Ragweed” value [12, 24] was 35 and the “Plant response rating, Ragweed” value [12, 25] was 75. For the same molecule, the “Oilseed Rape plant response rating” value [13, 19] was 5, the “Oilseed Rape plant response rating” value [13, 20] was 10 and the “Plant response rating, Oilseed Rape” value [13, 21] was 60. The “Plant response rating, Oilseed Rape” value [13, 22] was 75, the “Plant response rating (scale 0 to 100), Oilseed Rape” value ([13]; Preemergence, 125 g ai/ha) was 100 and the “Plant response rating, Oilseed Rape” value [13, 23] was 60. For the same molecule, the “Plant response rating, Oilseed Rape” value [13, 24] was 98, the “Plant response rating, Oilseed Rape” value [13, 25] was 100 and the “Corn plant response rating” value [14, 19] was 0. For the same molecule, the “Corn plant response rating” value [14, 20] was 0, the “Plant response rating, Corn” value [14, 21] was 5 and the “Plant response rating, Corn” value [14, 22] was 5. For the same molecule, the “Plant response rating (scale 0 to 100), Corn” value ([14]; Preemergence, 125 g ai/ha) was 20, the “Plant response rating, Corn” value [14, 23] was 5 and the “Plant response rating, Corn” value [14, 24] was 20. For the same molecule, the “Plant response rating, Corn” value [14, 25] was 10.
